# Results published in the NIST ThermoML archive (doi:10.1016/j.fluid.2005.11.020).
# Values joined by “and” are separate entries in the source; they are usually repeats but may differ in a detail not shown here. Equal entries are not always repeated. ± gives the expanded uncertainty stated by the source.
# Conditions: Liquid; for mass density: 293.2 K, 101.33 kPa, Vibrating tube method; for vapor or sublimation pressure: Ebulliometric method (Recirculating still)
SMILES,mass density,vapor or sublimation pressure (371.3 K),vapor or sublimation pressure (371.4 K),vapor or sublimation pressure (404.6 K),vapor or sublimation pressure (428.8 K),vapor or sublimation pressure (357.5 K)
CCCCCCC [heptane],683.53 ± 0.27 kg/m3,100.91 ± 1 kPa and 100.6 ± 1 kPa,100.95 ± 1 kPa,,,
Clc1ccccc1 [chlorobenzene],1106.07 ± 0.3 kg/m3,,,100.82 ± 1 kPa,,
Brc1ccccc1 [bromobenzene],1495.28 ± 0.48 kg/m3,,,,100.91 ± 1 kPa,
Fc1ccccc1 [fluorobenzene],1022.27 ± 0.27 kg/m3,,,,,100.55 ± 1 kPa
